Test results from the NIST ThermoML archive (doi:10.1021/je0341413).

Assay: xn = mol fraction of the nth substance listed
Details: 101.3 kPa, Liquid

CCOC(=O)OCC [diethyl carbonate] + CCCCCO
Details	viscosity [mPa·s]
293.15 K, x1 = 0.0496	3.384
293.15 K, x1 = 0.1016	2.868
293.15 K, x1 = 0.2034	2.125
293.15 K, x1 = 0.3124	1.618
293.15 K, x1 = 0.3801	1.412
293.15 K, x1 = 0.5085	1.162
293.15 K, x1 = 0.6047	1.051
293.15 K, x1 = 0.7068	0.955
293.15 K, x1 = 0.8058	0.88
293.15 K, x1 = 0.9058	0.825
293.15 K, x1 = 0.9521	0.804
293.15 K, x1 = 1	0.795
298.15 K, x1 = 0.0459	2.91
298.15 K, x1 = 0.0984	2.492
298.15 K, x1 = 0.2067	1.857
298.15 K, x1 = 0.3012	1.497
298.15 K, x1 = 0.4002	1.242
298.15 K, x1 = 0.5091	1.067
298.15 K, x1 = 0.5884	0.972
298.15 K, x1 = 0.6988	0.871
298.15 K, x1 = 0.7986	0.802
298.15 K, x1 = 0.9133	0.751
298.15 K, x1 = 0.9663	0.745
298.15 K, x1 = 1	0.749
303.15 K, x1 = 0.0541	2.471
303.15 K, x1 = 0.0951	2.186
303.15 K, x1 = 0.1968	1.664
303.15 K, x1 = 0.292	1.356
303.15 K, x1 = 0.3986	1.131
303.15 K, x1 = 0.4966	0.992
303.15 K, x1 = 0.5963	0.88
303.15 K, x1 = 0.6847	0.803
303.15 K, x1 = 0.7988	0.733
303.15 K, x1 = 0.8885	0.706
303.15 K, x1 = 0.9493	0.7
303.15 K, x1 = 1	0.699
313.15 K, x1 = 0.0505	1.97
313.15 K, x1 = 0.1009	1.729
313.15 K, x1 = 0.2038	1.359
313.15 K, x1 = 0.3044	1.12
313.15 K, x1 = 0.4054	0.96
313.15 K, x1 = 0.5077	0.845
313.15 K, x1 = 0.5969	0.771
313.15 K, x1 = 0.71	0.697
313.15 K, x1 = 0.81	0.65
313.15 K, x1 = 0.9036	0.623
313.15 K, x1 = 0.9537	0.621
313.15 K, x1 = 1	0.623

CCOC(=O)OCC [diethyl carbonate] + CCCCO
Details	viscosity [mPa·s]
293.15 K, x1 = 0.051	2.5
293.15 K, x1 = 0.1027	2.148
293.15 K, x1 = 0.2008	1.672
293.15 K, x1 = 0.2978	1.376
293.15 K, x1 = 0.4026	1.173
293.15 K, x1 = 0.5079	1.031
293.15 K, x1 = 0.6014	0.944
293.15 K, x1 = 0.7033	0.878
293.15 K, x1 = 0.7986	0.841
293.15 K, x1 = 0.9031	0.814
293.15 K, x1 = 0.951	0.81
293.15 K, x1 = 1	0.795
298.15 K, x1 = 0.0519	2.203
298.15 K, x1 = 0.0993	1.899
298.15 K, x1 = 0.1996	1.445
298.15 K, x1 = 0.2923	1.195
298.15 K, x1 = 0.3989	1.03
298.15 K, x1 = 0.5017	0.939
298.15 K, x1 = 0.6016	0.874
298.15 K, x1 = 0.7043	0.815
298.15 K, x1 = 0.8002	0.766
298.15 K, x1 = 0.8968	0.736
298.15 K, x1 = 0.9471	0.734
298.15 K, x1 = 1	0.749
303.15 K, x1 = 0.0508	1.905
303.15 K, x1 = 0.1004	1.642
303.15 K, x1 = 0.2016	1.3
303.15 K, x1 = 0.3	1.101
303.15 K, x1 = 0.3917	0.977
303.15 K, x1 = 0.5032	0.87
303.15 K, x1 = 0.597	0.794
303.15 K, x1 = 0.7099	0.729
303.15 K, x1 = 0.8216	0.699
303.15 K, x1 = 0.9035	0.697
303.15 K, x1 = 0.9488	0.697
303.15 K, x1 = 1	0.699
313.15 K, x1 = 0.0506	1.535
313.15 K, x1 = 0.1007	1.356
313.15 K, x1 = 0.2005	1.09
313.15 K, x1 = 0.2975	0.926
313.15 K, x1 = 0.4122	0.802
313.15 K, x1 = 0.5035	0.741
313.15 K, x1 = 0.6084	0.691
313.15 K, x1 = 0.7044	0.656
313.15 K, x1 = 0.8055	0.634
313.15 K, x1 = 0.9016	0.618
313.15 K, x1 = 0.9486	0.617
313.15 K, x1 = 1	0.623

CCOC(=O)OCC [diethyl carbonate] + CCCO
Details	viscosity [mPa·s]
293.15 K, x1 = 0.0504	1.9
293.15 K, x1 = 0.1007	1.662
293.15 K, x1 = 0.2008	1.325
293.15 K, x1 = 0.3019	1.115
293.15 K, x1 = 0.4004	0.998
293.15 K, x1 = 0.5039	0.921
293.15 K, x1 = 0.6031	0.877
293.15 K, x1 = 0.7007	0.84
293.15 K, x1 = 0.7999	0.808
293.15 K, x1 = 0.9132	0.786
293.15 K, x1 = 0.9531	0.785
293.15 K, x1 = 1	0.795
298.15 K, x1 = 0.0515	1.689
298.15 K, x1 = 0.0993	1.482
298.15 K, x1 = 0.2012	1.178
298.15 K, x1 = 0.3007	1.005
298.15 K, x1 = 0.4026	0.904
298.15 K, x1 = 0.5022	0.845
298.15 K, x1 = 0.6029	0.801
298.15 K, x1 = 0.7041	0.762
298.15 K, x1 = 0.8087	0.73
298.15 K, x1 = 0.9065	0.721
298.15 K, x1 = 0.9523	0.729
298.15 K, x1 = 1	0.749
303.15 K, x1 = 0.0464	1.494
303.15 K, x1 = 0.0963	1.315
303.15 K, x1 = 0.1968	1.062
303.15 K, x1 = 0.2981	0.907
303.15 K, x1 = 0.3987	0.818
303.15 K, x1 = 0.4958	0.771
303.15 K, x1 = 0.5991	0.732
303.15 K, x1 = 0.6967	0.703
303.15 K, x1 = 0.8063	0.678
303.15 K, x1 = 0.908	0.674
303.15 K, x1 = 0.9448	0.682
303.15 K, x1 = 1	0.699
313.15 K, x1 = 0.05	1.214
313.15 K, x1 = 0.1018	1.087
313.15 K, x1 = 0.2001	0.911
313.15 K, x1 = 0.3017	0.795
313.15 K, x1 = 0.3958	0.727
313.15 K, x1 = 0.504	0.674
313.15 K, x1 = 0.6009	0.642
313.15 K, x1 = 0.7032	0.624
313.15 K, x1 = 0.7998	0.61
313.15 K, x1 = 0.8997	0.608
313.15 K, x1 = 0.9468	0.612
313.15 K, x1 = 1	0.623

CCOC(=O)OCC [diethyl carbonate] + CCO
Details	viscosity [mPa·s]
293.15 K, x1 = 0.0503	1.098
293.15 K, x1 = 0.0997	1.021
293.15 K, x1 = 0.198	0.906
293.15 K, x1 = 0.3006	0.835
293.15 K, x1 = 0.4031	0.792
293.15 K, x1 = 0.5031	0.77
293.15 K, x1 = 0.6063	0.761
293.15 K, x1 = 0.6898	0.755
293.15 K, x1 = 0.8066	0.759
293.15 K, x1 = 0.895	0.77
293.15 K, x1 = 0.945	0.776
293.15 K, x1 = 1	0.795
298.15 K, x1 = 0.0496	1.05
298.15 K, x1 = 0.0973	0.943
298.15 K, x1 = 0.1963	0.835
298.15 K, x1 = 0.2985	0.771
298.15 K, x1 = 0.398	0.728
298.15 K, x1 = 0.5057	0.714
298.15 K, x1 = 0.6032	0.708
298.15 K, x1 = 0.7035	0.703
298.15 K, x1 = 0.7999	0.702
298.15 K, x1 = 0.8989	0.714
298.15 K, x1 = 0.9283	0.721
298.15 K, x1 = 1	0.749
303.15 K, x1 = 0.0491	0.899
303.15 K, x1 = 0.0984	0.834
303.15 K, x1 = 0.1952	0.754
303.15 K, x1 = 0.2961	0.704
303.15 K, x1 = 0.3946	0.673
303.15 K, x1 = 0.4859	0.661
303.15 K, x1 = 0.5995	0.649
303.15 K, x1 = 0.6959	0.648
303.15 K, x1 = 0.7862	0.649
303.15 K, x1 = 0.8911	0.661
303.15 K, x1 = 0.9254	0.669
303.15 K, x1 = 1	0.699
313.15 K, x1 = 0.0499	0.777
313.15 K, x1 = 0.102	0.74
313.15 K, x1 = 0.2038	0.676
313.15 K, x1 = 0.3116	0.636
313.15 K, x1 = 0.4001	0.613
313.15 K, x1 = 0.4971	0.6
313.15 K, x1 = 0.6023	0.59
313.15 K, x1 = 0.7058	0.591
313.15 K, x1 = 0.8065	0.596
313.15 K, x1 = 0.9022	0.608
313.15 K, x1 = 0.9518	0.616
313.15 K, x1 = 1	0.623

CCOC(=O)OCC [diethyl carbonate] + CO
Details	viscosity [mPa·s]
293.15 K, x1 = 0.0513	0.592
293.15 K, x1 = 0.1002	0.596
293.15 K, x1 = 0.1972	0.608
293.15 K, x1 = 0.2839	0.623
293.15 K, x1 = 0.4038	0.642
293.15 K, x1 = 0.5	0.657
293.15 K, x1 = 0.5933	0.675
293.15 K, x1 = 0.6417	0.685
293.15 K, x1 = 0.7996	0.722
293.15 K, x1 = 0.9014	0.75
293.15 K, x1 = 0.9709	0.782
293.15 K, x1 = 1	0.795
298.15 K, x1 = 0.0496	0.556
298.15 K, x1 = 0.0996	0.558
298.15 K, x1 = 0.1985	0.574
298.15 K, x1 = 0.2944	0.588
298.15 K, x1 = 0.4014	0.603
298.15 K, x1 = 0.4975	0.615
298.15 K, x1 = 0.6068	0.637
298.15 K, x1 = 0.7087	0.658
298.15 K, x1 = 0.8365	0.688
298.15 K, x1 = 0.9091	0.71
298.15 K, x1 = 0.9598	0.731
298.15 K, x1 = 1	0.749
303.15 K, x1 = 0.049	0.518
303.15 K, x1 = 0.0966	0.524
303.15 K, x1 = 0.1958	0.537
303.15 K, x1 = 0.2824	0.548
303.15 K, x1 = 0.3914	0.563
303.15 K, x1 = 0.4936	0.578
303.15 K, x1 = 0.581	0.592
303.15 K, x1 = 0.6945	0.612
303.15 K, x1 = 0.7349	0.62
303.15 K, x1 = 0.8512	0.645
303.15 K, x1 = 0.9214	0.663
303.15 K, x1 = 1	0.699
313.15 K, x1 = 0.0509	0.456
313.15 K, x1 = 0.0999	0.46
313.15 K, x1 = 0.2009	0.475
313.15 K, x1 = 0.2981	0.49
313.15 K, x1 = 0.4009	0.505
313.15 K, x1 = 0.5056	0.524
313.15 K, x1 = 0.6062	0.543
313.15 K, x1 = 0.7033	0.561
313.15 K, x1 = 0.8055	0.584
313.15 K, x1 = 0.902	0.603
313.15 K, x1 = 0.9448	0.61
313.15 K, x1 = 1	0.623

CCO [ethanol] + CCOC(=O)OCC
x2 = 0
Details	viscosity [mPa·s]
293.15 K	1.194
298.15 K	1.105
303.15 K	0.972
313.15 K	0.826

CO [methanol] + CCOC(=O)OCC
x2 = 0
Details	viscosity [mPa·s]
293.15 K	0.591
298.15 K	0.553
303.15 K	0.514
313.15 K	0.45

CCCCCO [pentan-1-ol] + CCOC(=O)OCC
x2 = 0
Details	viscosity [mPa·s]
293.15 K	3.979
298.15 K	3.347
303.15 K	2.932
313.15 K	2.256
